Measured values published in patent publication US6890942B2, “Acyl sulfonamides as inhibitors of HIV integrase” (Bristol-Myers Squibb Company, priority 2003, dated 2005).

Molecular target: T1, HIV-integrase (Human immunodeficiency virus type 1 group M subtype B, UniProt P04585)
T1 construct: 0.26 ng of recombinant integrase was incubated with the beads
Assay: HIV-Integrase Inhibition Activity (SPA bead strand-transfer assay)
Format: biochemical
Conditions: 10 μM compound; recombinant integrase
Procedure: For each reaction, 5 pmole of biotin labeled substrate DNA was bound to 100 ug of Streptavidin coated PVT SPA beads (Amersham Pharmacia Biotech). 0.26 ng of recombinant integrase was incubated with the beads for 90 min at 37 C. Unbound enzyme was removed by washing the complex followed by addition of inhibitors and 0.1 fmol of P33 labeled target DNA. Reaction was stopped by adding EDTA to a final concentration of 10 mM. Samples were counted in TopCountNXT (Packard) and the CPM was used as a measure of integration. Reaction condition was as described in A. Engelman and R. Craigie, J. Virol. 69, 5908-5911 (1995). The sequences of substrate and target DNA were described in Nucleic Acid Research 22, 1121-1122 (1994). Compounds of this invention tested in this assay have IC50's of approximately 0.01 to 25 μM.
In the case of `CON(Cc1ccccc1OC(C)C)C(=O)/C=C(\O)C(=O)NS(C)(=O)=O` [Example 23, 3-Hydroxy-4-methanesulfonylamino-4-oxo-but-2-enoic acid (2-isopropoxy-benzyl)-methoxy-amide], the inhibition at 10 µM is reported as 99%. With `CON(Cc1ccc(F)cc1)C(=O)/C=C(\O)C(=O)NS(=O)(=O)C1CCCC1` [Example 6, 4-Cyclopentanesulfonylamino-3-hydroxy-4-oxo-but-2-enoic acid (4-fluoro-benzyl)-methoxy-amide] the inhibition at 10 µM was 99%. `CON(C(=O)/C=C(\O)C(=O)NS(C)(=O)=O)C(C)c1ccc(F)cc1` (stereo not shown) [Example 26, 3-Hydroxy-4-methanesulfonylamino-4-oxo-but-2-enoic acid[1-(4-fluoro-phenyl)-ethyl]-methoxy-amide] showed an inhibition at 10 µM of 99%. For `CON(Cc1ccc(F)cc1Cl)C(=O)/C=C(\O)C(=O)NS(C)(=O)=O` [Example 28, 3-Hydroxy-4-methanesulfonylamino-4-oxo-but-2-enoic acid (2-chloro-4-fluoro-benzyl)-methoxy-amide], the inhibition at 10 µM was 99%. `CON(Cc1ccc(F)cc1)C(=O)/C=C(\O)C(=O)NS(=O)(=O)c1cccc(C)n1` [Example 9, 3-Hydroxy-4-(6-methyl-pyridine-2-sulfonylamino)-4-oxo-but-2-enoic acid (4-fluoro-benzyl)-methoxy-amide] gave an inhibition at 10 µM of 94%. `CON(Cc1ccc(F)cc1)C(=O)/C=C(\O)C(=O)NS(=O)(=O)c1ccc(NC(C)=O)cc1` [Example 11, 4-(4-Acetylamino-benzenesulfonylamino)-3-hydroxy-4-oxo-but-2-enoic acid (4-fluoro-benzyl)-methoxy-amide] gave an inhibition at 10 µM of 99%. `CN(C(=O)/C=C(\O)C(=O)NS(C)(=O)=O)C(Cc1ccc(Cl)cc1)Cc1ccc(Cl)cc1` [Example 29, 3-Hydroxy-4-methanesulfonylamino-4-oxo-but-2-enoic acid [1-(4-chloro-benzyl)-2-(4-chloro-phenyl)-ethyl]-methyl-amide] gave an inhibition at 10 µM of 86%. `CON(Cc1ccc(F)cc1)C(=O)/C=C(\O)C(=O)NS(=O)(=O)C1CC1` [Example 7, 4-Cyclopropanesulfonylamino-3-hydroxy-4-oxo-but-2-enoic acid (4-fluoro-benzyl)-methoxy-amide] showed an inhibition at 10 µM of 99%. Compound `CON(C(=O)/C=C(\O)C(=O)NS(C)(=O)=O)C(c1ccc(F)cc1)c1ccc(F)cc1` [Example 27, 3-Hydroxy-4-methanesulfonylamino-4-oxo-but-2-enoic acid [bis-(4-fluoro-phenyl)-methyl]-methoxy-amide] has an inhibition at 10 µM of 60%. `CCOc1ccc2nc(S(=O)(=O)NC(=O)C(O)=CC(=O)N(Cc3ccc(F)cc3)OC)sc2c1` [Example 12, 4-(6-Ethoxy-benzothiazole-2-sulfonylamino)-3-hydroxy-4-oxo-but-2-enoic acid (4-fluoro-benzyl)-methoxy-amide] gave an inhibition at 10 µM of 99%. `CON(CCCc1ccc(F)cc1)C(=O)/C=C(\O)C(=O)NS(C)(=O)=O` [Example 30, 3-Hydroxy-4-methanesulfonylamino-4-oxo-but-2-enoic acid [3-(4-fluoro-phenyl)-propyl]-methoxy-amide] showed an inhibition at 10 µM of 98%. Work on `CON(Cc1ccc(F)cc1)C(=O)/C=C(\O)C(=O)NS(=O)(=O)c1cn(C)cn1` [Example 14, 3-Hydroxy-4-(1-methyl-1H-imidazole-4-sulfonylamino)-4-oxo-but-2-enoic acid (4-fluoro-benzyl)-methoxy-amide] yielded an inhibition at 10 µM of 93%. `CON(Cc1ccc(F)cc1)C(=O)/C=C(\O)C(=O)NS(=O)(=O)c1ccc(C)cc1` [Example 1, 3-Hydroxy-4-oxo-4-(toluene-4-sulfonylamino)-but-2-enoic acid (4-fluoro-benzyl)-methoxy-amide] showed an inhibition at 10 µM of 99%. `CON(Cc1ccc(F)cc1)C(=O)/C=C(\O)C(=O)NS(=O)(=O)c1ccc(-c2cc(C(F)(F)F)n(C)n2)s1` [Example 17, 3-Hydroxy-4-[5-(1-methyl-5-trifluoromethyl-1H-pyrazol-3-yl)-thiophene-2-sulfonylamino]-4-oxo-but-2-enoic acid (4-fluoro-benzyl)-methoxy-amide] showed an inhibition at 10 µM of 99%. Compound `CON(Cc1ccc(F)cc1)C(=O)/C=C(\O)C(=O)NS(C)(=O)=O` [Example 2, 3-Hydroxy-4-methanesulfonylamino-4-oxo-but-2-enoic acid (4-fluoro-benzyl)-methoxy-amide] has an inhibition at 10 µM of 99%. For `CON(Cc1ccc(F)cc1)C(=O)/C=C(\O)C(=O)NS(=O)(=O)c1nnc(NC(C)=O)s1` [Example 3, 4-(5-Acetylamino-[1,3,4]thiadiazole-2-sulfonylamino)-3-hydroxy-4-oxo-but-2-enoic acid (4-fluoro-benzyl)-methoxy-amide], the inhibition at 10 µM was 99%. With `CON(Cc1ccc(F)cc1)C(=O)/C=C(\O)C(=O)NS(=O)(=O)C1CCS(=O)(=O)C1` (stereo not shown) [Example 16, 4-(1,1-Dioxo-tetrahydro-1×6-thiophene-3-sulfonylamino)-3-hydroxy-4-oxo-but-2-enoic acid (4-fluoro-benzyl)-methoxy-amide] the inhibition at 10 µM was 98%. For `CON(Cc1ccc(C(=O)O)cc1)C(=O)/C=C(\O)C(=O)NS(C)(=O)=O` [Example 21, 4-{[(3-Hydroxy-4-methanesulfonylamino-4-oxo-but-2-enoyl)-methoxy-amino]-methyl}-benzoic acid], the inhibition at 10 µM was 30%. `CON(Cc1ccc(C)c(F)c1)C(=O)/C=C(\O)C(=O)NS(C)(=O)=O` [Example 25, 3-Hydroxy-4-methanesulfonylamino-4-oxo-but-2-enoic acid (3-fluoro-4-methyl-benzyl)-methoxy-amide] showed an inhibition at 10 µM of 99%. With `CON(Cc1ccc(F)cc1)C(=O)/C=C(\O)C(=O)NS(=O)(=O)c1ccc(Cl)s1` [Example 10, 4-(5-Chloro-thiophene-2-sulfonylamino)-3-hydroxy-4-oxo-but-2-enoic acid (4-fluoro-benzyl)-methoxy-amide] the inhibition at 10 µM was 95%. Compound `CON(Cc1ccc(F)cc1)C(=O)/C=C(\O)C(=O)NS(=O)(=O)C1(Cc2ccccc2)CC1` [Example 20, 4-(1-Benzyl-cyclopropanesulfonylamino)-3-hydroxy-4-oxo-but-2-enoic acid (4-fluoro-benzyl)-methoxy-amide] has an inhibition at 10 µM of 99%. `CON(Cc1ccc(C(=O)OC(C)(C)C)cc1)C(=O)/C=C(\O)C(=O)NS(C)(=O)=O` [Example 24, 4-{[(3-Hydroxy-4-methanesulfonylamino-4-oxo-but-2-enoyl)-methoxy-amino]-methyl}-benzoic acid tert-butyl ester] showed an inhibition at 10 µM of 15%. For `CCN1CCCC1CNC(=O)c1cc(S(=O)(=O)NC(=O)/C(O)=C/C(=O)N(Cc2ccc(F)cc2)OC)ccc1OC` (stereo not shown) [Example 15, N-(1-Ethyl-pyrrolidin-2-ylmethyl)-5-[3-[(4-fluoro-benzyl)-methoxy-carbamoyl]-2-hydroxy-acryloylsulfamoyl]-2-methoxy-benzamide], the inhibition at 10 µM was 93%. `CCCC1(S(=O)(=O)NC(=O)/C(O)=C/C(=O)N(Cc2ccc(F)cc2)OC)CC1` [Example 18, 3-Hydroxy-4-oxo-4-(1-propyl-cyclopropanesulfonylamino)-but-2-enoic acid (4-fluoro-benzyl)-methoxy-amide] showed an inhibition at 10 µM of 99%. With `CON(Cc1ccc(F)cc1)C(=O)/C=C(\O)C(=O)NS(=O)(=O)C1(CC2CC2)CC1` [Example 19, 4-(1-Cyclopropylmethyl-cyclopropanesulfonylamino)-3-hydroxy-4-oxo-but-2-enoic acid (4-fluoro-benzyl)-methoxy-amide] the inhibition at 10 µM was 99%. `CON(Cc1ccc(F)cc1)C(=O)/C=C(\O)C(=O)NS(=O)(=O)c1c(C)noc1C` [Example 8, 4-(3,5-Dimethyl-isoxazole-4-sulfonylamino)-3-hydroxy-4-oxo-but-2-enoic acid (4-fluoro-benzyl)-methoxy-amide] gave an inhibition at 10 µM of 99%. In the case of `CON(Cc1ccc(F)cc1)C(=O)/C=C(\O)C(=O)NS(=O)(=O)C1CCCCC1` [Example 5, 4-Cyclohexanesulfonylamino-3-hydroxy-4-oxo-but-2-enoic acid (4-fluoro-benzyl)-methoxy-amide], the inhibition at 10 µM is reported as 99%. Work on `CON(Cc1ccc(F)cc1)C(=O)/C=C(\O)C(=O)NS(=O)(=O)c1sc(C)nc1C` [Example 13, 4-(2,4-Dimethyl-thiazole-5-sulfonylamino)-3-hydroxy-4-oxo-but-2-enoic acid (4-fluoro-benzyl)-methoxy-amide] yielded an inhibition at 10 µM of 98%. Work on `CON(Cc1ccc(F)cc1)C(=O)/C=C(\O)C(=O)NS(=O)(=O)CC1CCC1` [Example 4, 4-Cyclobutylmethanesulfonylamino-3-hydroxy4-oxo-but-2-enoic acid (4-fluoro-benzyl)-methoxy-amide] yielded an inhibition at 10 µM of 99%. With `CON(Cc1ccc(F)c(C)c1)C(=O)/C=C(\O)C(=O)NS(C)(=O)=O` [Example 22, 3-Hydroxy-4-methanesulfonylamino-4-oxo-but-2-enoic acid (4-fluoro-3-methyl-benzyl)-methoxy-amide] the inhibition at 10 µM was 99%.

Tested on: not given
Assay: not given
Conditions: not given
In the case of `CON(Cc1ccc(F)cc1Cl)C(=O)/C=C(\O)C(=O)NS(C)(=O)=O` [Example 28, 3-Hydroxy-4-methanesulfonylamino-4-oxo-but-2-enoic acid (2-chloro-4-fluoro-benzyl)-methoxy-amide], the melting point is reported as 144 °C (dec.). For `CON(Cc1ccc(F)cc1)C(=O)/C=C(\O)C(=O)NS(C)(=O)=O` [Example 2, 3-Hydroxy-4-methanesulfonylamino-4-oxo-but-2-enoic acid (4-fluoro-benzyl)-methoxy-amide], the melting point was 137 °C (dec.). `CON(Cc1ccc(C(=O)O)cc1)C(=O)/C=C(\O)C(=O)NS(C)(=O)=O` [Example 21, 4-{[(3-Hydroxy-4-methanesulfonylamino-4-oxo-but-2-enoyl)-methoxy-amino]-methyl}-benzoic acid] gave a melting point of 119 to 124 °C. For `CON(Cc1ccc(F)c(C)c1)C(=O)/C=C(\O)C(=O)NS(C)(=O)=O` [Example 22, 3-Hydroxy-4-methanesulfonylamino-4-oxo-but-2-enoic acid (4-fluoro-3-methyl-benzyl)-methoxy-amide], the melting point was 138 °C (dec.).
